Experimental data as given in patent US12403195B2, “Sensitizing cells to proton radiation” (Humanetics Corporation, priority 2017, dated 2025).
Read-outs that look alike come from different tables or passages of the source.

Columns and labels:
H1299 human NSCLC cells = test: Clonogenic cell survival after radiation, H1299 cells; type: cell-based; conditions: for Genistein (D0): 5 μM nanoparticulate genistein 24 hours before radiation; for DMF (Dose Modifying Factor): 5 μM nanoparticulate genistein vs vehicle
Description: (§1) In the experiments described herein, a R10.5M5 double scattered proton beam (a proton beam with a maximum range of 10.5 cm where the SOBP comprises the final 5 cm) was utilized with precise positioning of culture dishes at specific points at the entrance, middle, and end of the SOBP. For this beam, the “low LET” was at 2 cm depth, corresponding to about 4 keV/μM, and the high LET was at 10 cm depth, corresponding to about 30 keV/μM. As used herein, the term “low LET” refers to about one to about ten (e.g., about one to three, two to four, three to five, four to six, five to seven, six to eight, seven to nine, or eight to ten) keV/μM unrestricted LET as determined from tables of proton stopping power in liquid water, available from the National Institute of Standards and Technology (stopping power and range tables for protons; “PSTAR”). The term “high-LET” refers to about 20 to 40 (e.g., 20 to 25, 25 to 30, 30 to 35, or 35 to 40) keV/μM, again as determined from PSTAR unrestricted LET tables.
Studies were conducted to determine whether a nanoparticulate genistein formulation affects cellular radiosensitivity to protons with increasing LET. Normal and cancer cell lines were exposed to low, intermediate, or high LET proton radiation. These experiments used the H1299 and H460 NSCLC cell lines, which are relevant to lung cancer research during medical radiation exposure as well as nonmedical or accidental radiation exposure. These cell lines were derived from human cancer patients and have well-known radiobiologic properties, with H1299 being relatively less radiosensitive. Both lines harbor Ras pathway activating mutations (H460, KRAS; H1299, NRAS). MRC5 human lung fibroblasts also were used as representative normal cells. Each cell line was obtained from the American Type Culture Collection (ATCC) and tested for mycoplasma regularly. Clonogenic cell survival studies were performed as described elsewhere (Cengel et al., Neoplasia 9(4):341-348, 2007). Briefly, cells were plated 24 hours prior to radiation at about 50% confluence. […] Cells were radμated using either 250 KVp x-rays or protons with lower vs. higher LET. To vary the proton LET, cell dishes were placed at a depth of 2 cm (D2, low LET) or 10 cm (D10, high LET) in a R10.5M5 double scattered proton beam—a double scattered proton beam with a maximum range of 10.5 cm and a modulated depth of 5 cm, meaning that the Spread-out Bragg peak (SOBP) began roughly at a depth of 5.5 cm. In this configuration, the D2 and D10 positions corresponded to the entrance and terminal portions of the SOBP, respectively. After exposure to radiation, cells were trypsinized into a single cell suspension and re-plated at various densities without nanoparticulate genistein. About two weeks later (typically 13 to 16 days, depending on colony size), plates were rinsed and stained using crystal violet/ethanol, and colonies were enumerated using an Oxford Optronix automated colony counter with a minimum threshold size of 50 cells to define a colony. […]
(§2) Relative radiosensitivity was numerically compared using a standard variable, D0 (the dose of radiation needed to reduce the surviving fraction by a factor of 1/e), which was determined from the positive solution to the quadratic equation of the form: βD^2+αD−1=0, where α and β are determined from the LQ survival curve fit as above. The Dose Modifying Factor (DMF) was determined by the quotient: […]

[1] = system: H460 human non-small cell lung cancer (NSCLC) cells; test: Clonogenic cell survival after radiation, H460 cells; type: cell-based; conditions: for Genistein (D0): 5 μM nanoparticulate genistein 24 hours before radiation; for DMF (Dose Modifying Factor): 5 μM nanoparticulate genistein vs vehicle, radiosensitization defined as DMF>1.1
Description: as §1
(§3) Studies were conducted to determine whether a nanoparticulate genistein formulation affects cellular radiosensitivity to protons with increasing LET. Normal and cancer cell lines were exposed to low, intermediate, or high LET proton radiation. These experiments used the H1299 and H460 NSCLC cell lines, which are relevant to lung cancer research during medical radiation exposure as well as nonmedical or accidental radiation exposure. These cell lines were derived from human cancer patients and have well-known radiobiologic properties, with H1299 being relatively less radiosensitive. Both lines harbor Ras pathway activating mutations (H460, KRAS; H1299, NRAS). MRC5 human lung fibroblasts also were used as representative normal cells. Each cell line was obtained from the American Type Culture Collection (ATCC) and tested for mycoplasma regularly. Clonogenic cell survival studies were performed as described elsewhere (Cengel et al., Neoplasia 9(4):341-348, 2007). Briefly, cells were plated 24 hours prior to radiation at about 50% confluence. […] Cells were radμated using either 250 KVp x-rays or protons with lower vs. higher LET. […]
as §2

[2] = humans; compared to formulations containing non-micronized genistein; cited from earlier work
[3] = system: MRC5 normal human lung fibroblasts; test: Clonogenic cell survival after radiation, MRC5 cells; type: cell-based; conditions: for Genistein (D0): 5 μM nanoparticulate genistein 24 hours before radiation; for DMF (Dose Modifying Factor): 5 μM nanoparticulate genistein vs vehicle
Description: as §1, §3, §2

[4] = mice; compared to formulations containing non-micronized genistein; cited from earlier work
[5] = canines; compared to formulations containing non-micronized genistein; cited from earlier work
[6] = High LET Protons (D10, 10 cm depth)

Compound: O=c1c(-c2ccc(O)cc2)coc2cc(O)cc(O)c12 [Genistein, 5,7-dihydroxy-3-(4-hydroxyphenyl)-chromen-4-one]
- Genistein (D0) (H1299 human NSCLC cells; [6]): 3.03
- DMF (Dose Modifying Factor) (H1299 human NSCLC cells; High LET Protons, radiosensitization defined as DMF>1.1): 1.35
- Genistein (D0) (H1299 human NSCLC cells; X-Rays (250 KVp)): 4.28
- DMF (Dose Modifying Factor) (H1299 human NSCLC cells; X-Rays, radiosensitization defined as DMF>1.1): 0.97
- DMF (Dose Modifying Factor) (H1299 human NSCLC cells; lower LET protons (D2, 2 cm depth)): 1.09
- Genistein (D0) [1, 6]: 2.23
- DMF (Dose Modifying Factor) ([1]; High LET Protons): 1.04
- Genistein (D0) ([1]; X-Rays (250 KVp), D0 = dose reducing surviving fraction by 1/e): 2.41
- DMF (Dose Modifying Factor) ([1]; X-Rays): 1.07
- oral bioavailability [2]: increased oral bioavailability
- Genistein (D0) [3, 6]: 1.26
- DMF (Dose Modifying Factor) ([3]; High LET Protons): 1.07
- Genistein (D0) ([3]; X-Rays (250 KVp)): 1.38
- DMF (Dose Modifying Factor) ([3]; X-Rays): 1.01
- oral bioavailability [4]: increased oral bioavailability
- oral bioavailability [5]: increased oral bioavailability
